Key:
[1] = target: Hydroxycarboxylic acid receptor 2 (Homo sapiens) (UniProt Q8TDS4); assay: Displacement of [3H]nicotinic acid from human GPR109A receptor expressed in CHO-K1 cells at 25 uM; format: cell-based
[2] = target: Hydroxycarboxylic acid receptor 2 (Homo sapiens) (UniProt Q8TDS4); assay: Displacement of [3H]nicotinic acid from human GPR109A receptor expressed in CHO-K1 cells at 2.5 uM; format: cell-based
Mus musculus = assay: Induction of vasodilation in mouse assessed as arbitrary units from vasodilation AUC curve at 100 mg/kg; format: functional
[3] = Oral bioavailability in mouse; format: ADME, organism-based; conditions: in vivo
[4] = Volume of distribution at steady state in mouse; format: ADME, organism-based; conditions: in vivo, read-out: Vdss
[5] = Plasma clearance in mouse; format: ADME, organism-based
[6] = Half life in mouse; format: ADME, organism-based; conditions: in vivo
[7] = Cmax in mouse; format: ADME, organism-based; conditions: in vivo

Row | Compound | Activity [1] [%] | Activity [2] [%] | Activity (Mus musculus) | also measured
1 | O=C(O)c1cccnc1 [NIACIN] |  |  | 707 | 
2 | O=C(CCc1ccccc1)Nc1ccccc1C(=O)O | 52 | 88 |  | 
3 | O=C(CCc1ccc2cc(O)ccc2c1)Nc1ccccc1C(=O)O |  |  | 59 | bioavailability [3]: 55%; Vd [4]: 0.7 L/kg; clearance [5]: 6.2 mL/min/kg; half-life [6]: 3.2 h; Cmax [7]: 6.6 µM

More lines, main results first:

Row | Activity [1] [%] | Activity [2] [%] | Compound | Activity (Mus musculus) | also measured
4 | 40 | 78 | O=C(COc1ccccc1)Nc1ccccc1C(=O)O |  | 
5 | 33 | 69 | COc1ccc(OCC(=O)Nc2ccccc2C(=O)O)cc1 |  | 
